Measured values: patent US20030114666A1, “Antibacterial agents” (priority 2001, published 2003)
Values after ≈ are worked out from the molar mass of the structure shown. Read-outs that look alike come from different tables or passages of the source.

How the values were obtained:
E. coli B90 = assay: Test A antibacterial assay, standard microtitration (MIC); assay type: cell-based; details: Gram negative, E. coli B90
Procedure: (§1) Test A-Antibacterial Assay
(§2) The compounds of the present invention were tested against an assortment of Gram-negative and Gram-positive organisms using standard microtitration techniques (Cohen, et al., Antimicrob. Agents Chemother., 1985;28:766; Heifetz, et al., Antimicrob. Agents Chemother:, 1974;6:124). […]

E. coli MC 4100 = assay: as above; assay type: cell-based; details: Gram negative, E. coli MC 4100
Procedure: as §1, §2

E. coli Tol C = assay: as above; assay type: cell-based; details: for Minimum Inhibitory Concentrations E. coli Tol C: Gram negative
Procedure: as §1, §2

E. faecalis RB1 = assay: as above; assay type: cell-based; details: Gram positive, E. faecalis RB1
Procedure: as §1, §2

S. aureus 29213 = assay: as above; assay type: cell-based; details: Gram positive, S. aureus 29213
Procedure: as §1, §2

S. pyogenes C203 = assay: as above; assay type: cell-based; details: Gram positive, S. pyogenes C203
Procedure: as §1, §2

E. coli gyrase = E. coli gyrase (Escherichia coli, UniProt P0AES4+P0AES6); assay: biochemical
N. gonorrhoeae 2637 = assay: Test D cross resistance antibacterial assay (MIC); assay type: cell-based, Neisseria gonorrhoeae; details: parent strain, derivative of MS11
Procedure: (§3) Test D-Cross Resistance Antibacterial Assay
(§4) The compounds of the present invention were tested against an assortment of ciprofloxacin resistant E. coli and S. aureus organisms described below using standard microtitration techniques (Cohen, et al., Antimicrob. Agents Chemother., 1985;28:766; Heifetz, et al., Antimicrob. Agents Chemother., 1974;6:124). […].
N. gonorrhoeae 2637 (N.g. 2637) is a derivative of Neisseria gonorrhoeae MS11 containing a TAC-LAC recA to allow for control of homologous recombination [Tonjum T. et al. Molecular Microbiology 1995, 16, 451-64].

N. gonorrhoeae 2709 = assay: Test D cross resistance antibacterial assay (MIC); assay type: cell-based, Neisseria gonorrhoeae; details: for MIC fold increase N. g. 2709 (in parentheses): relative to MIC against N. g. 2637
Procedure: as §3, §4
N. gonorrhoeae 2709 (N.g. 2709): Isogenic to N. gonorrhoeae 2637 contains gyrA quinolone-resistant determining region (QRDR) mutations (S91F D95G).

N. gonorrhoeae 2693 = assay: Test D cross resistance antibacterial assay (MIC); assay type: cell-based, Neisseria gonorrhoeae; details: for MIC fold increase N. g. 2693 (in parentheses): relative to MIC against N. g. 2637
Procedure: as §3, §4
N. gonorrhoeae 2693 (N.g. 2693): Isogenic to N. gonorrhoeae 2709 containing parC QRDR mutations [P88S and E91K].

S. aureus UC-76 = assay: Test D cross resistance antibacterial assay (MIC); assay type: cell-based; details: wild type sensitive laboratory strain
Procedure: as §3, §4
S. aureus UC-76: Typical sensitive laboratory strain (Wild type).

S. aureus 2552 = assay: Test D cross resistance antibacterial assay (MIC); assay type: cell-based; details: for MIC fold increase S. aureus 2552 (in parentheses): relative to MIC against S. aureus UC-76
Procedure: as §3, §4

S. aureus 2554 = assay: Test D cross resistance antibacterial assay (MIC); assay type: cell-based; details: for MIC fold increase S. aureus 2554 (in parentheses): relative to MIC against S. aureus UC-76
Procedure: as §3, §4
S. aureus 2554: Isogenic to S. aureus 2552, with point mutation at position 80 of grlA subunit.

S. aureus 2558 = assay: Test D cross resistance antibacterial assay (MIC); assay type: cell-based; details: for MIC fold increase S. aureus 2558 (in parentheses): relative to MIC against S. aureus UC-76
Procedure: as §3, §4
S. aureus 2558: Isogenic to S. aureus 2554, with point mutation at position 84 of gyrA subunit.

S. pyogenes = assay: Test C in vivo activity, median protective dose in mice given lethal systemic infections; details: PO, lethal systemic infection with S. pyogenes

Chain of E. coli gyrase (P0AES4 whole entry, one chain of several): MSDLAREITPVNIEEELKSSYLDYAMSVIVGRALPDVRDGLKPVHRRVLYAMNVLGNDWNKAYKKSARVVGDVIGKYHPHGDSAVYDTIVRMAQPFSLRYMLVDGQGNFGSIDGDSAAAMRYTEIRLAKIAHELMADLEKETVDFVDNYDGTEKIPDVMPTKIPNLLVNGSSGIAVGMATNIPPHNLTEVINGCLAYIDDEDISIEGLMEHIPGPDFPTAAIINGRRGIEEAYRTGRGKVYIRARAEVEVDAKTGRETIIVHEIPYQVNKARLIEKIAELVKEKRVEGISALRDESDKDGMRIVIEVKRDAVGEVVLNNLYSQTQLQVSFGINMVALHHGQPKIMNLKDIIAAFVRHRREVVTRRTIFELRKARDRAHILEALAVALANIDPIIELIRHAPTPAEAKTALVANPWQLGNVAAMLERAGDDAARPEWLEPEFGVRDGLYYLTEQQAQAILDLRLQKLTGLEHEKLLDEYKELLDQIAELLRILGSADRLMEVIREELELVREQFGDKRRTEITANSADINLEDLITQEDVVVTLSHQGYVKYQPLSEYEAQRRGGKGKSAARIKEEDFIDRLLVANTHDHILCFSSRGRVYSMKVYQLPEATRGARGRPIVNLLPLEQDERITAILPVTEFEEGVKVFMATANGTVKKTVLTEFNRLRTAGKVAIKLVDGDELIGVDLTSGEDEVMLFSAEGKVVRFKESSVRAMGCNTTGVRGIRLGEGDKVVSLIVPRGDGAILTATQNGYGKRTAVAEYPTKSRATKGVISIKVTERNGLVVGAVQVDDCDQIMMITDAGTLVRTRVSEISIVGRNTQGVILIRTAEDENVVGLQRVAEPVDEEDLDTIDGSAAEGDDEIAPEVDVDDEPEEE

“1-Cyclopropyl-7-(5,5-difluoro-4-hydroxy-4,5,6,7-tetrahydrobenzo[b]thiophen-2-yl)-6-fluoro-8-methyl-1H-quinazolinedione [Example 23b]” was tested, and the “Minimum Inhibitory Concentrations E. coli B90” value (E. coli B90) was 0.13 µg/mL, the “Minimum Inhibitory Concentrations E. coli MC 4100” value (E. coli MC 4100) was 16.0 µg/mL and the “Minimum Inhibitory Concentrations E. coli Tol C” value (E. coli Tol C) was <0.06 µg/mL. For the same molecule, the “Minimum Inhibitory Concentrations E. faecalis RB1” value (E. faecalis RB1) was 1.0 µg/mL, the “Minimum Inhibitory Concentrations S. aureus 29213” value (S. aureus 29213) was 0.5 µg/mL and the “Minimum Inhibitory Concentrations S. pyogenes C203” value (S. pyogenes C203) was 2.0 µg/mL. It also gave an IC50 (E. coli gyrase; supercoiling of relaxed pBR322, 30 minutes at 37° C.) of 1 µM.

In the case of “7-(3-[1-Amino-1-(2-fluorophenyl)methyl]pyrrolidin-1-yl}-1-cyclopropyl-6-fluoro-6-methyl-1H-quinazolinedione Hydrochloride [Example 7j]”, the “Minimum Inhibitory Concentrations E. coli B90” value (E. coli B90) is reported as 0.25 µg/mL, the “Minimum Inhibitory Concentrations E. coli MC 4100” value (E. coli MC 4100) is reported as 8.0 µg/mL and the “Minimum Inhibitory Concentrations E. coli Tol C” value (E. coli Tol C) is reported as 0.06 µg/mL. The “Minimum Inhibitory Concentrations E. faecalis RB1” value (E. faecalis RB1) was 0.25 µg/mL, the “Minimum Inhibitory Concentrations S. aureus 29213” value (S. aureus 29213) was 0.13 µg/mL and the “Minimum Inhibitory Concentrations S. pyogenes C203” value (S. pyogenes C203) was 0.03 µg/mL. The IC50 (E. coli gyrase) was 0.8 µM, the “Minimum Inhibitory Concentrations N. g. 2637” value (N. gonorrhoeae 2637) was 0.13 µg/mL and the “Minimum Inhibitory Concentrations N. g. 2709” value (N. gonorrhoeae 2709; gyrA QRDR mutations (S91F D95G)) was 0.5 µg/mL. For the same molecule, the “MIC fold increase N. g. 2709 (in parentheses)” value (N. gonorrhoeae 2709) was “(4x)”, the “Minimum Inhibitory Concentrations N. g. 2693” value (N. gonorrhoeae 2693; gyrA plus parC QRDR mutations [P88S and E91K]) was 1.0 µg/mL and the “MIC fold increase N. g. 2693 (in parentheses)” value (N. gonorrhoeae 2693) was “(8x)”. The “Minimum Inhibitory Concentrations S. aureus UC-76” value (S. aureus UC-76) was 0.06 µg/mL, the “MIC fold increase S. aureus 2552 (in parentheses)” value (S. aureus 2552) was “(1x)” and the “Minimum Inhibitory Concentrations S. aureus 2552” value (S. aureus 2552; upregulated norA pump) was 0.06 µg/mL. For the same molecule, the “Minimum Inhibitory Concentrations S. aureus 2554” value (S. aureus 2554; norA plus point mutation at position 80 of grlA) was 0.06 µg/mL, the “MIC fold increase S. aureus 2554 (in parentheses)” value (S. aureus 2554) was “(1x)” and the “Minimum Inhibitory Concentrations S. aureus 2558” value (S. aureus 2558; norA, grlA plus point mutation at position 84 of gyrA) was 0.06 µg/mL. For the same molecule, the “MIC fold increase S. aureus 2558 (in parentheses)” value (S. aureus 2558) was “(1x)”.

In the case of “7-[(R)-3-(1-Aminocyclopropyl)pyrrolidin-1-yl]-1-cyclopropyl-6-fluoro-8-methyl-1 h-quinazolinedione Hydrochloride [Example 26b]”, the “Minimum Inhibitory Concentrations E. coli B90” value (E. coli B90) is reported as 0.25 µg/mL, the “Minimum Inhibitory Concentrations E. coli MC 4100” value (E. coli MC 4100) is reported as 2.0 µg/mL and the “Minimum Inhibitory Concentrations E. coli Tol C” value (E. coli Tol C) is reported as 0.13 µg/mL. For the same molecule, the “Minimum Inhibitory Concentrations E. faecalis RB1” value (E. faecalis RB1) was 0.13 µg/mL, the “Minimum Inhibitory Concentrations S. aureus 29213” value (S. aureus 29213) was 0.25 µg/mL and the “Minimum Inhibitory Concentrations S. pyogenes C203” value (S. pyogenes C203) was 0.03 µg/mL. It also gave an IC50 (E. coli gyrase) of 1.6 µM.

In the case of “7-[(R)-3-((S)-1-Aminoethyl)pyrrolidin-1-yl]-1-cyclopropyl-6-fluoro-5,8-dimethyl-1H-quinazolinedione Hydrochloride [Example 41c]”, the “Minimum Inhibitory Concentrations E. coli B90” value (E. coli B90) is reported as 0.25 µg/mL, the “Minimum Inhibitory Concentrations E. coli MC 4100” value (E. coli MC 4100) is reported as 2.0 µg/mL and the “Minimum Inhibitory Concentrations E. coli Tol C” value (E. coli Tol C) is reported as 0.06 µg/mL. The “Minimum Inhibitory Concentrations E. faecalis RB1” value (E. faecalis RB1) was 0.03 µg/mL, the “Minimum Inhibitory Concentrations S. aureus 29213” value (S. aureus 29213) was 0.03 µg/mL and the “Minimum Inhibitory Concentrations S. pyogenes C203” value (S. pyogenes C203) was 0.008 µg/mL. For the same molecule, the IC50 (E. coli gyrase) was 0.6 µM.

In the case of `O=C(O)c1cn(C2CC2)c2cc(N3CCNCC3)c(F)cc2c1=O` [Ciprofloxacin, ciprofloxacin, reference compound], the MIC (E. coli B90; Escherichia coli, read-out: Minimum Inhibitory Concentrations E. coli B90) is reported as < 0.01 µg/mL, the MIC (E. coli MC 4100; Escherichia coli, MC4100, read-out: Minimum Inhibitory Concentrations E. coli MC 4100) is reported as < 0.02 µg/mL and the MIC (E. coli Tol C; Escherichia coli, read-out: Minimum Inhibitory Concentrations E. coli Tol C) is reported as < 0.01 µg/mL. It also gave an MIC (E. faecalis RB1; Enterococcus faecalis, read-out: Minimum Inhibitory Concentrations E. faecalis RB1) of 0.5 µg/mL (≈ 1.51 µM), an MIC (S. aureus 29213; Staphylococcus aureus, read-out: Minimum Inhibitory Concentrations S. aureus 29213) of 0.5 µg/mL (≈ 1.51 µM) and an MIC (S. pyogenes C203; Streptococcus pyogenes, read-out: Minimum Inhibitory Concentrations S. pyogenes C203) of 0.5 µg/mL (≈ 1.51 µM). The PD50 (S. pyogenes) was >100.0 mg/kg, the MIC (N. gonorrhoeae 2637; Neisseria gonorrhoeae, 2637, read-out: Minimum Inhibitory Concentrations N. g. 2637) was 0.002 µg/mL and the MIC (N. gonorrhoeae 2709; Neisseria gonorrhoeae, 2709, read-out: Minimum Inhibitory Concentrations N. g. 2709) was 0.06 µg/mL (≈ 0.181 µM). The “MIC fold increase N. g. 2709 (in parentheses)” value (N. gonorrhoeae 2709) was “(30x)”, the “MIC fold increase N. g. 2693 (in parentheses)” value (N. gonorrhoeae 2693) was “(1000x)” and the MIC (S. aureus UC-76; Staphylococcus aureus, UC76, read-out: Minimum Inhibitory Concentrations S. aureus UC-76) was 0.13 µg/mL (≈ 0.392 µM). For the same molecule, the MIC (S. aureus 2552; Staphylococcus aureus, 2552, upregulated norA pump, read-out: Minimum Inhibitory Concentrations S. aureus 2552) was 2 µg/mL (≈ 6.04 µM), the “MIC fold increase S. aureus 2552 (in parentheses)” value (S. aureus 2552) was “(15x)” and the “MIC fold increase S. aureus 2554 (in parentheses)” value (S. aureus 2554) was “(15x)”. The “MIC fold increase S. aureus 2558 (in parentheses)” value (S. aureus 2558) was “(123x)”.
